ChEMBL document CHEMBL1156314, “Synthesis and structure-activity relationships of antimalarial 4-oxo-3-carboxyl quinolones” (Bioorg Med Chem, 2010)

Tests used:
[1] = Membrane permeability at 10 uM at pH 4 by PAMPA method; type: ADME; conditions: read-out: permeability
[2] = pampa, pH 7.4, 10 µM
in vitro = conditions: PAMPA, pH 7.4

SMILES	Papp at 10 µM [1] [×10⁻⁶ cm/s]	permeability [2]	further results
CCOC(=O)c1c(-c2ccc3c(c2)OCO3)nc2cc(OC)ccc2c1Cl	500		
NC(=O)N1c2ccccc2C=Cc2ccccc21 [CARBAMAZEPINE]		145 10^-6 cm/s	
CCOC(=O)c1cc2c(OC)cccc2nc1-c1ccc2c(c1)OCO2	500		
CNC(=C[N+](=O)[O-])NCCSCc1ccc(CN(C)C)o1.Cl [RANITIDINE HYDROCHLORIDE]		1.2 10^-6 cm/s	
CCOC(=O)c1c(-c2cccc([N+](=O)[O-])c2)[nH]c2cccc(OC)c2c1=O			permeability at 10 µM (in vitro): 110 ×10⁻⁶ cm/s
